From patent US10550120B2, “Indole alkaloid compound having immune checkpoint inhibitory action” (TOHOKU UNIVERSITY, priority 2016, dated 2020)

Experiments:
IL-10 = test: Measurement of human IL-10 amount in culture supernatant of MT2 cells with ELISA kit (Test 1); type: cell-based; details: 48±2 hours; for activity at 12.5 µM / activity at 25 µM: Homo sapiens, 48 h, DMSO control = 100%, read-out: % against control (IL-10 production)
Protocol: (§1) MT2 cells from human adult T-cell leukemia were used. Leukemia cells of human adult T-cell leukemia (ATL) express CD4 and CD25 molecules on the cell surface and are considered to be derived from Treg (Chen S. et al., International Immunology 18:269-277 (2005)). MT2 cells were used in experiments as models of Treg since the cells are CD4 positive, CD25 positive, and FOXP3 positive celles derived from ATL.
(§2) The example compounds (compounds 1-17) of the present invention were dissolved in dimethylsulfoxide (DMSO) to prepare each 50 mmol/L solution, which was preserved at −80° C.
The amount of IL-10 production in the control and the example compounds was measured to evaluate the inhibitory effect on IL-10 production of the example compounds of the present invention.
(1) MT2 cells are suspended in RPMI1640 medium (hereinafter referred to as “the medium”) supplemented with 10% fetal calf serum (FCS) and 1% penicillin/streptomycin (P/S) to give 3×10^5 cells/mL suspension, and 1 mL of the suspension was added to each well of a 24-well plate. […] The cell cultures were incubated 48±2 hours in a CO2 incubator (under a condition of 37° C., 5 CO2). DMSO was diluted 50-fold with the medium, and 20 μL of the diluent was added to the well to make a control of compounds 1-7. In addition, DMSO was diluted 50-fold with the medium, and 25.0 μL of the diluent was added to the well to make a control of compounds 8-17.
(2) A piece of the cell culture was sampled to count cells with a cell counter (BIO RAD TC-20). The cell culture was centrifuged at 300×g for 5 minutes and the supernatant was collected as a sample for IL-10 measurement. When not measured within a day, it was preserved in a freezer at −80° C.
(3) Human IL-10 ELISA kit II (BD OptEIA) was used on the measurement. The kit contains wells treated with anti-IL-10 antibody (8 wells/strip), Standard/Sample diluent, vials comprising freeze-dried IL-10 Standard (1280 pg/vial), ELISA diluent, 20× Wash Buffer, Detection antibody, Enzyme Concentrate, TMB One Step Substrate Reagent, Stop Solution, and cover sheets.
(4) To a vial containing IL-10 Standard was added […] Standard/Sample diluent, and the vial was stood at room temperature for 15 minutes to be dissolved (Standard sample stock solution 1L-10 concentration: 500 pg/mL).
(5) Standard samples in each concentration for making a standard curve were prepared as follows. Firstly, to 300 μL of the medium was added 300 μL of the standard sample stock solution, and the mixture was mixed with a Voltex mixer (250 pg/mL). Next, 300 μL of the standard sample of 250 pg/mL was added to 300 μL of the medium and the mixture was mixed with a Voltex mixer (125 pg/mL). The same procedures were successively repeated to prepare standard solutions of 62.5, 31.25, 15.625, and 7.8125 pg/mL. As 0 pg/mL standard solution, the medium was used.
(6) A kit containing wells treated with anti-IL-10 antibody (8 wells/strip) was warmed to room temperature and 50 μL of ELISA diluent in the kit was added into each well.
(7) To each well containing ELISA diluent, 100 μL of the standard samples of each concentration and each test sample (diluded 50-100 fold with medium) were added.
(8) After the wells were sealed with a cover sheet and gently tapped, they were left at room temperature for 2 hours.
(9) 20× Wash Buffer was diluted 20-fold with water to prepare 1× Wash Buffer.
(10) After the reaction was done for 2 hours, the solutions in each well were aspirated and washed 5 times with 300 μL of 1× Wash Buffer.
(11) After Enzyme Concentrate (4 μL per 8 wells) was added to Detection antibody (1 ml per 8 wells), the solution was mixed by a Vortex mixer and then a necessary amount of Working Detector was prepared.
(12) 100 μL of Working Detector was added to each well, covered with a cover sheet, and the wells were left at room temperature for an hour.
(13) After the reaction was done for an hour, the solutions in wells were aspirated and washed 7 times with 300 μL of 1× Wash Buffer. […]

CTLA-4 = test: Intracellular staining of MT2 cells with fluorescence-labeled anti-CTLA-4 antibody and measurement by flow cytometry; type: cell-based, human; details: 48±2 hours; for Peak MFI of CTLA-4: isotype IgG2a subtracted, average of n=3
Protocol: as §1, §2
(1) MT2 cells were suspended in RPMI1640 medium (hereinafter referred to as “the medium”) supplemented with 10% fetal calf serum (FCS) and 1° penicillin/streptomycin (P/S) to give 3×10^5 cells/mL suspension and 3 mL of the suspension was added to each well of a 6-well plate. To each well were added 0.6 or 1.2 μL of the test compound solutions (compounds 1, 2, and 4), 0.75 or 1.5 μL of the test compound solution (compound 9), and 1.5 μL of the test compound solutions (compounds 8 and 10-17), and the cell cultures were incubated in a CO2 gas incubator (under 37° C., 5% CO2) and cultured for 48±2 hours. As a control of compound 1, 2 and 4, only 1.2 μL of DMSO was added to the well. In addition, as a control of compound 8-17, only 1.5 μL of DMSO was added to the well.
(2) A piece of the cell culture was sampled to count cells with a cell counter (BIO RAD TC-20). The cell culture was centrifuged at 300×g for 5 min, and the supernatant was removed. The residue was suspended in phosphate buffered saline (supplemented with 1% bovine serum albumin (BSA), without calcium and magnesium) (1% BSA/PBS) to adjust the concentration of cells to 5-10×10^6 cells/mL.
(3) To 5 ml tube, each 50 μL of the cell suspension was added.
(4) Foxp3/Transcription Factor Fix/Perm Concentrate (4×) (Cat. No. TNB-1020-L050) (Solution A) in FOXP3/Transcription Factor Staining kit (TONBO biosciences) was diluted with Foxp3/Transcription Factor Fix/Perm Diluent (1×) (Cat. No. TNB-1022-L160) (for dilution of Solution A) to prepare 1× Solution A.
(5) 1 mL of 1× Solution A was added to each tube and mixed by gentle pipetting. Subsequently, it was left at room temperature for 30 min, centrifuged at 300×g for […], and the supernatant was discarded.
(6) Flow Cytometry Perm Buffer (10×) (Cat. No. TNB-1213-L150) (Solution B) in the kit was diluted 10-fold with water to prepare 1× Solution B.
(7) 2 mL of 1× Solution B was added to the tube and centrifuged at 300×g for 5 min. The supernatant was discarded. 2 μL of 2% normal mouse serum/PBS was added to the tube and the tube was gently pipetted. Subsequently, it was left at room temperature for 15 min.
(8) In the CTLA-4 measurement, 20 μL of anti-CTLA-4 antibody (BECKMAN COULTER, CD152-PE clone BN13I M2282) or mouse IgG2a (BECKMAN COULTER, IgG2a (Mouse)-PE A09142) for the control was added to the tube and the tube was gently stirred. Subsequently, it was left in the dark at room temperature for 30 min, and 2 mL of the 1× Solution B was added thereto, the mixture was centrifuged at 300×g for 5 min, and the supernatant was discarded. 2 mL of the 1× Solution B was added to the tube again, the mixture was centrifuged at 300×g for 5 min, and the supernatant was discarded.
(9) Within 2 hours after the solution in the tube was suspended in 0.5 mL of 1% BSA/PBS, and the fluorescence at 577 nm was measured with 488 nm excitation with a flow cytometer (Sony: Cell Sorter SH800). The results were analyzed with software, FlowJo (Tree Star Inc.). The mean peak fluorescence intensity (MFI) of CTLA-4 and mean peak fluorescence intensity of isotype control IgG2a were calculated from histgrams of the measured fluorescence intensity and number of cells, and mean fluorescence intensity of IgG2a was subtracted from that of CTLA-4. Experiments were conducted in n=3, and the average values were shown.

[1] = Homo sapiens, 48 h, 25.0 μmol/L, DMSO control = 100%, read-out: % against control (CTLA-4 expression)

| SMILES | IL-10 (ng/10^6 cells) ± standard deviate (n = 3) (IL-10; 12.5 μmol/L) [ng/10^6 cells] | IL-10 (ng/10^6 cells) ± standard deviate (n = 3) (IL-10; 25.0 μmol/L) [ng/10^6 cells] | activity at 12.5 µM (IL-10; 12.5 μmol/L) [%] | activity at 25 µM (IL-10; 25.0 μmol/L) [%] | Peak MFI of CTLA-4 (CTLA-4; 25.0 μmol/L) | activity at 25 µM (CTLA-4; [1]) [%] | Peak MFI of CTLA-4 (CTLA-4; 12.5 μmol/L) | activity at 12.5 µM (CTLA-4; Homo sapiens, 48 h, 12.5 μmol/L, DMSO control = 100%, read-out: % against control (CTLA-4 expression)) [%] |
| --- | --- | --- | --- | --- | --- | --- | --- | --- |
| COC(=O)C1=CN2CCc3c([nH]c4ccc(O)cc34)[C@@H]2[C@@H]2[C@@H](C)[C@@H](O)C[C@H]12 [Compound 16] | 9.8 ± 0.3 | 8.6 ± 0.1 | 88.9 | 77.9 | 529 | 70.3 | – | – |
| COC(=O)C1=CN2CCc3c([nH]c4c(F)cccc34)[C@@H]2[C@@H]2[C@@H](C)[C@@H](O)C[C@H]12 [Compound 17] | 7.0 ± 0.2 | 6.0 ± 0.2 | 64.2 | 54.2 | 339 | 45 | – | – |
| COC(=O)C1=CN2CCc3c([nH]c4cc(Cl)ccc34)[C@@H]2[C@@H]2[C@@H](C)[C@@H](O)C[C@H]12 [Compound 9] | 11.1 ± 1.3 | 6.1 ± 1.3 | 67.7 | 37.5 | 539 | 52.8 | 778 | 76.3 |
| COC(=O)C1=CN2CCc3c([nH]c4cc(OC)ccc34)[C@@H]2[C@@H]2[C@@H](C)[C@@H](O)C[C@H]12 [Compound 8] | 15.5 ± 1.2 | 7.9 ± 0.4 | 94.6 | 48.4 | 361 | 50 | – | – |
